Results taken from patent US20170135378A1, “COMPOSITION AND USE THEREOF” (DUPONT NUTRITION BIOSCIENCES APS, priority 2014, published 2017).

Key:
[1] = Release testing of betaine leaching from shrimp feed pellets in artificial seawater; assay type: physicochemical
Protocol: An aquafeed comprising the composition of the invention (or the composition itself) is placed in a rotating basket and immersed in 500 ml of artificial seawater (547.6 mM NaCl, 56.8 mM MgSO4.7H2O, 2.4 mM NaHCO3, adjusted to pH 8,2 with 1M NaOH), and held at 30° C. Aliquots of sample are withdrawn at selected time-points (1, 3, 5, 10, 15, 30, 45, 60 and 90 minutes). The volume of dissolution media is held constant through the re-addition of aliquots (30° C.) of fresh media to compensate. The aliquots are analysed by a suitable analytical technique (e.g. HPLC) in order to determine the concentration of the hydro-soluble component in the dissolution media.
An aquafeed sample (30 g) was placed in a rotating basket and immersed in 500 ml of artificial seawater (pH 8,2), held at 30° C. 5 ml aliquots of sample were withdrawn at selected time-points (1, 3, 5, 10, 15, 30, 45, 60 and 90 minutes). The volume of dissolution media was held constant (500 ml) through the re-addition of 5 ml aliquots of fresh media (30° C.). These samples were filtered on […], frozen and analysed by HPLC in Advanced Analysis.
Release curves (see FIGS. 1 to 3) show the amount of betaine leached as a percentage of weight of available net betaine (% w/w).

[2] = pure form; water and lower alcohols; cited from earlier work

proportion of available betaine leached over 90 minutes ([1]; pellets with increased betaine content (c. 5 and 10 kg/T, FIGS. 2 and 3), artificial seawater pH 8,2, 30° C., 90 minutes): ≤ 40%
leach profile of pellets (comparison in words) ([1]; shrimp feed pellets c. 2, 5 and 10 kg betaine/T, artificial seawater, 30° C., up to 90 minutes): fastest and most extensive leaching
available betaine dissolved after 90 minutes ([1]; shrimp feed pellets prepared with c. 2 kg betaine/T, artificial seawater pH 8,2, 30° C., 90 minutes, FIG. 1): ≤ 60%
SMILES: C[N+](C)(C)CC(=O)[O-] [Betafin BT, trimethylglycine]
solubility (in words) [2]: readily soluble in water and lower alcohols
